Laboratory results as given in patent US9856259B2, “Heterocyclic compounds and uses thereof” (Plexxikon Inc., priority 2014, dated 2018).

How the values were obtained:
BRD4-BD12 = target: T1, BRD4-BD12 (Homo sapiens, UniProt O60885); assay: Alphascreen binding assay, BRD4(1 2) H4; settings: BRD4 dual bromodomains with acetylated Histone 4 peptide, read-out: Biochemical activity (IC50 μM) BRD4(1 2) H4
T1 construct: dual bromodomains (BRD4-BD12 (1-477), BRD4-BD12 (1-472)); six-His tag (N); made in house; host or cells: E. coli BL21-CodonPlus (DE3)
Experimental: Binding of compounds of formula (I) with bromodomain 2, 3 4 was assessed using Alphascreen binding assay. The inhibition of the interaction between bromodomain and its acetylated target protein (Filippakopoulos P et al. 2012) was measured quantitatively using recombinant BRD proteins, an acetylated Histone 4 peptide and AlphaScreen™ technology. In absence of inhibition the BRD protein bound to AlphaScreen™ nickel chelate acceptor beads can interact with the acetylated Histone 4 peptide which is immobilized by the AlphaScreen™ Streptavidin coated beads. This interaction brings donor and acceptor beads in proximity. The close proximity allows the singlet oxygen produced by laser excitation of the donor beads to reach the acceptor beads and generate a luminescence signal. BRD inhibitors result in a decrease in the proximity signal through an inhibition of the BRD acetylated peptide interaction.
Recombinant human bromodomains containing the N-terminal bromodomain (BRD2-BD1 (71-194), BRD3-BD1 (24-144) and BRD4-BD1 (44-164)) or dual bromodomains (BRD4-BD12 (1-477), BRD4-BD12 (1-472)) were prepared and purified as described in protein expression and purification session. The peptide is human Histone H41-21K5AcK8AcK12AcK16Ac-Biotin (Anaspec Calif., USA).
Protocol for BRD2, BRD3 and BRD4 assay: All components are prepared in buffer composed of 50 mM HEPES pH 7.5, 100 mM NaCl, 0.01% BSA, 0.01% Triton X-100, 2 mM DTT. 7 μL of Bromodomain protein and 7 μL of peptide are added to wells containing 1 μL of various concentrations of test compounds of formula (I) or DMSO vehicle in an Alphaplate (PerkinElmer Ga., USA) and incubated for 1 hour at room temperature. 4 μL donor and acceptor bead mixture is then added with final concentrations of 7.5 μg/ml. 30 minutes after bead addition, Alpha signal is read on the Envision spectrometer (λEx 680 nm, λEm 520-620 nm). Final concentrations of bromodomain proteins and peptide are as shown below.
All data was normalized to the mean of 16 high and 16 low control wells on each plate. A four parameter curve fit of the following formula was then applied: Y=a+(b−a)/(1+(x/c)^d) Where ‘a’ is the minimum, ‘b’ is the maximum, ‘c’ is the pIC50 and ‘d’ is the Hill slope. Protein Expression and Purification
Recombinant human bromodomains containing the N-terminal bromodomain (BRD2-BD1 (71-194), BRD3-BD1 (24-144) and BRD4-BD1 (44-164)) or dual bromodomains (BRD4-BD12 (1-477), BRD4-BD12 (1-472)) were expressed in E. coli cells (in a modified pET vector) with an N-terminal six-His tag and purified using a combination of both IMAC (Ni-affinity) and size exclusion chromatography steps.
Recombinant BRD proteins were expressed using the E. coli strain BL21-CodonPlus (DE3) (Agilent Technologies CA, USA). Cells were grown in Terrific Broth (TB) media to an OD600 of 1.2 at 37° C. at which temperature was reduced to 25° C., protein was induced with 1.0 mM IPTG for 12-18 hours and harvested by centrifugation at 8000×g for 20 minutes. Cells were re-suspended in 0.1M KPO4 pH 8.0, 250 mM NaCl, 10% Glycerol, 0.75% NP-40, 25 mM Imidazole, 5 mM BME with 0.2 mg/ml Lysosyme, 2.0 mM PMSF, 25 μg/ml DNAse I, incubated on ice for 30 minutes and lyzed with a cell disruptor (MicroFluidics MA, USA). The lysate was clarified by centrifugation at 20,000×g for 2 hours. The protein was captured with Ni-NTA resin (Life Technologies, USA). Contaminating proteins were washed off with 25 mM Tris-HCl pH 8.3, 250 mM NaCl, 12% Glycerol and 50 mM Imidazole. Following 3× wash steps, protein was eluted step wise using a 50 mM HEPES pH 7.5, 500 mM NaCl and 400 mM Imidazole. The protein was further purified using Gel Filtration column 26/600 Superdex 200 (GE Biosciences N.J., USA) in 50 mM HEPES pH 7.5, 250 mM NaCl. The protein was aliquoted and flash-frozen in liquid Nitrogen.

MV-4-11 = assay: Oncology cell growth assay, MV-4-11 3 d growth; assay type: cell-based; settings: Homo sapiens, MV4-11; MV-4-11 cells, 72 hours, CellTiter Glo; read-out: Cell activity (IC50 μM) MV-4-11 3 d-Growtb
Experimental: (§1) In this study, we test compounds in different cancer cell lines. MV-4-11 and MOLM-13 are AML cell lines harboring a MLL-AF4 and MLL-AF9 translocation, respectively. MM.1S is a multiple myeloma cell line. SK—N-AS, IMR-32 and SK-N-BE(2) are neuroblastoma cell lines. IMR-32 and SK-N-BE(2) cell lines harbor MYCN amplifications.
(§2) MV-4-11, MM.1S, IMR-32, SK-N-AS and SK-N-BE(2) were obtained from ATCC (IL, USA) and MOLM-13 were purchased from DSMZ (Braunschweig, German). Cells are cultured as recommended by their sources. For growth inhibition studies 3000 cells are seeded in wells of a 96-well plate in 75 μL of culture media. After several hours, growth media containing compounds of formula (I) are added to the wells. Compound at a maximal concentration of 5 mM was serially diluted 1:3 for a total of 8 point titration with DMSO as a control. A 1 μL aliquot of each dilution point is added to 249 μL growth media and 75 μL is added to each well containing cells, providing 10 μM compound at the maximum concentration point. The final concentration of DMSO in all wells is 0.2%. Cells are incubated for 72 hours, and 25 μL of CellTiter Glo Reagent (Promega Ga., USA) is added to each well. Plates are shaken for approximately 10 minutes and chemiluminescent signal is read on Tecan microplate reader. The measured luminescence correlates directly with cell number.
(§3) All data is normalized to the mean of eight DMSO high control wells on each plate. A four parameter curve fit of the following formula was then applied: Y=a+(b−a)/(1+(x/c)^d) Where ‘a’ is the minimum, ‘b’ is the maximum, ‘c’ is the pIC50 and ‘d’ is the Hill slope. […] Myc Reporter Assay

[1] = system: cancer cell lines / MV-4-11 Myc reporter cell line; assay: Bromodomain cell assays of Example 8 (at least one of them); assay type: cell-based; settings: Homo sapiens, MV4-11; at least one of the bromodomain cell assays described in Example 8
Experimental: as §1, §2, §3
In MV-4-11 cells, BRD2, BRD3 and BRD4 bind to the promoter region of MYC and regulate its transcription (Dawson M A et al. 2011). The literature bromodomain inhibitor iBET 151 could disrupt BRD4 recruitment to the MYC promoter and subsequently downregulate c-myc transcription (Dawson M A et al. 2011). Myc protein is a transcription factor that heterodimerizes with an obligatory partner Max and regulates the transcription of genes important for cell proliferation, differentiation, and apoptosis. This Myc reporter assay is used to monitor the inhibitory effect of compound of formula (I) on Myc dependent gene expression. Effective compounds could have potential therapeutic effects in Myc-driven tumors.
The MV-4-11 Myc reporter cell line is established by infecting MV-4-11 with VSV-g pseudotyped lentivirus expressing the firefly luciferase gene under the control of a minimal (m) CMV promoter and tandem repeats of the E-box transcriptional response element (TRE) (Qiagen IL, USA) and selecting cells in 2.5 μg/ml Puromycin.
The MV-4-11 Myc reporter cell line is maintained in Iscove's Modified Dulbecco's Medium containing 10% FBS, 1% PenStep and 2.5 μg/ml Puromycin. Cells are incubated at 37° C. in a humidified atmosphere with 5% CO2. 25,000 cells are seeded in 96-well plate in 50 μL of culture media. After several hours, growth media containing 2× compounds are added to the wells. Compound at a maximal concentration of 5 mM is serially diluted 1:3 for a total of 8 point titration. A 1 μl aliquot of each dilution point is added to 249 μl growth media and 50 μl is added to each well containing cells, providing 10 μM compound at the maximum concentration point. DMSO treated cells serve as a high control and 10 μM JQ1 treated cells serve as a low control. Cells are incubated for a further 24 hours and 25 μL of CellTiter-Fluo Reagent (Promega Ga., USA) is added to each well. Plates are shaken for approximately 2 minutes and incubated at 37° C. for 0.5 hour. Fluorescence signal is read in a Tecan Plate reader (λex=400 nm, λcm=505 nm). 25 μL of One-Glo Reagent (Promega Ga., USA) is then added to the plates. Chemiluminescent signal is read on Tecan plate reader. Values from the wells with no cells are subtracted from all samples for background correction. […]

Row | SMILES | IC50 (BRD4-BD12) | IC50 (MV-4-11) | IC50 [1]
1 | Cc1noc(C)c1-c1cnc2c(-c3ccc(C4(C(=O)O)CC4)cc3)cn([C@@H](C)c3ccccn3)c2n1 [Compound P-2054, 1-[4-[3-(3,5-dimethylisoxazol-4-yl)-5-[(1S)-1-(2-pyridyl)ethyl]pyrrolo[2,3-b]pyrazin-7-yl]phenyl]cyclopropanecarboxylic acid] | ≤ 1 µM | ≤ 1 µM | < 10 µM
2 | Cc1noc(C)c1-c1cnc2ncn(C(c3ccccc3)c3ccccn3)c2c1 (stereo not drawn) [Compound P-2103, 3,5-dimethyl-4-[1-[phenyl(2-pyridyl)methyl]imidazo[4,5-b]pyridin-6-yl]isoxazole] | ≤ 1 µM | ≤ 1 µM | < 10 µM
3 | [2H]C([2H])(C1CCC(F)(F)CC1)n1ccc2ncc(-c3c(C)noc3C)nc21 [Compound P-2038, 4-[5-[dideuterio-(4,4-difluorocyclohexyl)methyl]pyrrolo[2,3-b]pyrazin-3-yl]-3,5-dimethyl-isoxazole] | ≤ 1 µM | 1 to 10 µM | < 10 µM
4 | Cc1noc(C)c1-c1ccc2c(I)nn([C@@H](C)c3ccccn3)c2c1 [Compound P-2010, 4-[3-iodo-1-[(1S)-1-(2-pyridyl)ethyl]indazol-6-yl]-3,5-dimethyl-isoxazole] | ≤ 1 µM | ≤ 1 µM | < 10 µM
5 | Cc1noc(C)c1-c1ccc2c(I)nn(C(c3ccccc3)c3ccccn3)c2c1 (stereo not drawn) [Compound P-2003, 4-[3-iodo-1-[phenyl(2-pyridyl)methyl]indazol-6-yl]-3,5-dimethyl-isoxazole] | ≤ 1 µM | ≤ 1 µM | < 10 µM
6 | Cc1noc(C)c1-c1cnc2c(-c3cnn(C)c3)nn(CC3CCC(F)(F)CC3)c2c1 [Compound P-2081, 4-[1-[(4,4-difluorocyclohexyl)methyl]-3-(1-methylpyrazol-4-yl)pyrazolo[4,3-b]pyridin-6-yl]-3,5-dimethyl-isoxazole] | ≤ 1 µM | ≤ 1 µM | < 10 µM
7 | Cc1noc(C)c1-c1cnc2c(-c3cnn(CC(F)(F)F)c3)nn(CC3(F)CCCCC3)c2c1 [Compound P-2089, 4-[1-[(1-fluorocyclohexyl)methyl]-3-[1-(2,2,2-trifluoroethyl)pyrazol-4-yl]pyrazolo[4,3-b]pyridin-6-yl]-3,5-dimethyl-isoxazole] | ≤ 1 µM | ≤ 1 µM | < 10 µM
8 | Cc1nnn(C)c1-c1cnc2c(-c3cnn(C)c3)nn(CC3CCC(F)(F)CC3)c2c1 [Compound P-2090, 1-[(4,4-difluorocyclohexyl)methyl]-6-(3,5-dimethyltriazol-4-yl)-3-(1-methylpyrazol-4-yl)pyrazolo[4,3-b]pyridine] | ≤ 1 µM | ≤ 1 µM | < 10 µM
9 | Cc1noc(C)c1-c1cnc2c(c1)ncn2C(c1ccccc1)c1ccccn1 (stereo not drawn) [Compound P-2104, 3,5-dimethyl-4-[3-[phenyl(2-pyridyl)methyl]imidazo[4,5-b]pyridin-6-yl]isoxazole] | 1 to 10 µM | 10 to 200 µM | < 10 µM
10 | COC(=O)c1ccc(-c2cn(C(c3ccccc3)c3ccccn3)c3nc(-c4c(C)noc4C)cnc23)cc1 (stereo not drawn) [Compound P-2045, methyl 4-[3-(3,5-dimethylisoxazol-4-yl)-5-[phenyl(2-pyridyl)methyl]pyrrolo[2,3-b]pyrazin-7-yl]benzoate] | ≤ 1 µM | ≤ 1 µM | < 10 µM
11 | Cc1noc(C)c1-c1cnc2c(-c3cnn(C)c3)nn(CC3CC(F)(F)C3)c2c1 [Compound P-2086, 4-[1-[(3,3-difluorocyclobutyl)methyl]-3-(1-methylpyrazol-4-yl)pyrazolo[4,3-b]pyridin-6-yl]-3,5-dimethyl-isoxazole] | ≤ 1 µM | ≤ 1 µM | < 10 µM
12 | Cc1noc(C)c1-c1cnc2c(-c3cnn(CC(F)(F)F)c3)nn(CC3CC(F)(F)C3)c2c1 [Compound P-2087, 4-[1-[(3,3-difluorocyclobutyl)methyl]-3-[1-(2,2,2-trifluoroethyl)pyrazol-4-yl]pyrazolo[4,3-b]pyridin-6-yl]-3,5-dimethyl-isoxazole] | ≤ 1 µM | ≤ 1 µM | < 10 µM
